Experimental data as given in patent US20040087539A1, “Method of treating conditions related to platelet activity” (priority 2003, published 2004).

What was measured:
platelets = assay: Ristocetin-induced vWF-dependent platelet aggregation in platelet-rich plasma; type: cell-based, human
Description: Fresh blood from healthy volunteers was anticoagulated with 1/7 volume of ACD (2.5% trisodium citrate, 2% dextrose and 1.5% citric acid). Platelets were washed with CGS buffer (sodium chloride 0.12 M, trisodium citrate 0.0129 M and d-glucose 0.03 M, pH 6.5), resuspended in modified Tyrode's solution and allowed to incubate at 22° C. for 1 hours as previously described. In experiments using platelet-rich plasma (PRP), 1/10 volume of 3.8% trisodium citrate was used as anticoagulant. Platelet aggregation was measured using a turbidometric platelet aggregometer (Chrono-Log) at 37° C. vWF-dependent platelet aggregation was induced by addition of ristocetin or botrocetin to PRP. To differentiate CPIb-IX-mediated platelet agglutination from the second wave of integrin-dependent platelet aggregation, final concentrations of ristocetin were adjusted in each experiment to achieve a two-wave curve of aggregation. Washed platelets were used in platelet aggregation induced by a-thrombin (Enzyme Research Laboratories). To examine the effects of PKG, 100 μM of membrane permeable cGMP analogs, 8-bromo-cGMP or 8-dibutyl-cGMP (Calbiochem), or 1 μM sildenafil citrate (Pfizer) and added simultaneously with subthreshold concentrations of agonists. PKG inhibitors KT5823 (2 pM) and Rp-8PCPT-cGMP (0.2 mM) were preincubated with platelets at 37° C. for 5 minutes before addition of agonists.
In FIG. 3A, platelet rich-plasma (PRP) was preincubated at 37° C. for 5 mm with PKG inhibitors KT5823 (2 pM) or Rp-8pCPT-cGMP (0.2 μM). PRP was also incubated with DMSO (vehicle for KT5823), a PKA inhibitor, KT5720 (2 pM), or buffer (Control). The vWF modulator, ristocetin, was then added to induce vWF-GPIb-IX interaction. […] In FIG. 3B, a subthreshold concentration of ristocetin was added to PRP immediately followed by addition of 8-bromo-cGMP or buffer (Control). PRP also was preincubated with integrin inhibitor RGDS before adding ristocetin and 8-bromo-cGMP. In FIG. 3C, platelets were preincubated with or without PKG inhibitor KT5823, then allowed to spread on vWF-coated glass chamber slides. Platelets were stained with an anti-GPIb antibody, and fluorescein-labeled secondary antibody. The slides were imaged under a confocal microscope (magnification =630×).
In FIG. 6A, increasing concentrations of sildenafil or control 0.15 M NaCl solution were added to platelet-rich plasma followed by a subthreshold concentration of ristocetin. Platelet aggregation was recorded using a platelet aggregometer. In FIG. 6B, sildenafil or control buffer was added to washed platelets followed by addition of subthreshold doses of thrombin to induce platelet aggregation. It was noted that platelet aggregation occurs in the presence of sildenafil. The figure includes the representative results of at least three experiments.
In FIG. 7A, PRP was preincubated with 0.1 mM 8-bromo-cGMP for increasing lengths of time at 37° C. as indicated. The vWF modulator, ristocetin (1.25 mg/ml), then was added to induce platelet aggregation in a turbidometric platelet aggregometer. In FIG. 7B, PRP was preincubated with a high concentration of 8-bromo-cGMP (1 mM) for 5 minutes. Ristocetin then was added to induce platelet aggregation. In FIGS. 7C and 7D, washed platelets in modified Tyrode's solution were preincubated with 1 mM 8-bromo-cGMP (C), or various concentrations of 8-pCPT-cGMP (D) at 37° C. for 5 minutes. Thrombin (0.05 u/ml) then was added to induce platelet aggregation.

[1] = system: 123 cells (CHO cells expressing recombinant human GPIb-IX and integrin αIIbβ3); assay: vWF-induced GPIb-IX-mediated activation of integrin αIIbβ3 (Oregon green-labeled fibrinogen binding, flow cytometry); type: cell-based, Chinese Hamster; conditions: PKG-transfected 123 cells, 12 μg/ml vWF, 1 mg/ml ristocetin, FIGS. 1B, 1C
Description: Human PKG Iβ cDNA was cloned by RT-PCR, using human platelet mRNA as templates. Sequence of the human PKG Iβ cDNA fragment matches the published sequence. Cloning of human PKG Iα cDNA was described previously. PKG Iα or Iβ in pCDNA3.1/Zeo+vector was transfected into 123 cells (CHO cells expressing recombinant human CPIb-IX and integrin αIIbβ3 using Lipofectamine plus (BRL). Expression of PKG was assessed by Western blotting with an antihuman PKG I antibody (Calbiochem). The kinase activity of the expressed enzymes was measured in cell homogenates using BPDEtide (Calbiochem) as substrate as detailed previously. vWF-induced GPIb-IX-mediated activation of integrin αIIbβ3 was examined by flow cytometry analysis of Oregon green-labeled fibrinogen binding to integrln αIIbβ3 as described previously. Briefly, cells were detached from tissue culture plate using 0.5 mM EDTA, washed at 4° C. and resuspended in modified Tyrode's solution. Cells then were incubated with Oregon green-labeled fibrinogen (20 μg/ml) in the presence of ristocetin and vWF at 22° C. for 30 minutes, and analyzed by FACScalibur flow cytometer. Nonspecific binding of fibrinogen was estimated by measuring fibrinogon binding in the presence of a specific integrin inhibitor RGDS (1 mM) (see Refs. 13 and 43-45).
In FIG. 1A, CHO cells expressing GPLb-JX and integrin αIIbβ3 (123 cells) were transfected with cDNA encoding PKGIα or vector. Expression of PKG Ia in 123 cells was detected by Western blotting with an anti-human PKG I antibody (Insert), and recombinant PKG activity was determined in the absence or presence of 20 μM 8-bromo-cGMP as previously described. Results are expressed as mean +SD (n=3). For FIGS. 1B and 1C, reconstitution of GPIb-IX-mediated integrin activation in CHO cells was published (see Ref. 13). […] Cells were analyzed by flow cytometry. Quantitative results from three experiments are expressed as fibrinogen binding indices (total bound fluorescence (Fg)/nonspecifically bound fluorescence (Fg+RGDS)), and shown in FIG. 1B (mean ±SD).

With `Nc1nc2c(nc(Br)n2[C@@H]2O[C@@H]3COP(=O)(O)O[C@H]3[C@H]2O)c(=O)[nH]1` [8-bromo-cGMP] the “preincubation time required to inhibit platelets” value (platelets; 1 mM 8-bromo-cGMP, FIGS. 7B, 7C) was “less than 5 minutes”, the “preincubation time after which the inhibitory effect on platelet aggregation becomes significant” value (platelets; 8-bromo-cGMP 100 μM (0.1 mM), PRP, 37° C., ristocetin 1.25 mg/ml, FIG. 7A) was 10 min and the “GPIb-IX-dependent platelet activation, agent added simultaneously with ristocetin” value (platelets; 8-bromo-cGMP 100 μM, FIG. 7A) was “promoted”. For the same compound, the “platelet aggregation together with a subthreshold concentration of ristocetin” value (platelets; PRP, agent added with subthreshold ristocetin (1 mg/mm [sic]) (or botrocetin), FIGS. 3B, 6A) was “induced integrin-dependent platelet aggregation”, the “preincubation time required for a slight inhibitory effect” value (platelets; in some experiments, not shown) was 30 min and the “vWF-induced fibrinogen binding to integrin” value [1] was “further increased”. For the same compound, the “vWF-induced fibrinogen binding to integrin” value ([1]; row) was “dramatically increased”.
